Measurements: the supplement of paper PMC10307832

Assays:
Test in all cases: relative viability (nuclei count vs DMSO), 5 days (fraction); higher = more cells survive
[1] = compound: COC1=CC=C(C=C1)CN2C=CC3=C2C=C(C=C3)C(=O)NO + Cc1cc(Nc2cc(N3CCN(C)CC3)nc(Sc3ccc(NC(=O)C4CC4)cc3)n2)n[nH]1 [Tozasertib] (partner 0.1 µM)
Summary of the method: (§1)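 Relative viability equals treated-well nuclei counts divided by vehicle-well nuclei counts. Counts came from 4× images of lung cancer cell lines grown in 1536-well plates for 5 days after pin-tool dosing on the day after seeding. Dosing used one drug alone or a fixed anchor-drug dose plus five library-drug doses (not always all listed) in √10 steps, and values are medians of duplicate plates.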

[2] = compound: COC1=CC=C(C=C1)CN2C=CC3=C2C=C(C=C3)C(=O)NO + N=C(N)NC(=N)NCCc1ccccc1 [Phenformin] (partner 250 µM)
Summary of the method: as §1

Veliparib + Bortezomib = compound: C[C@]1(c2nc3c(C(N)=O)cccc3[nH]2)CCCN1 [Veliparib] + CC(C)C[C@H](NC(=O)[C@H](Cc1ccccc1)NC(=O)c1cnccn1)B(O)O [Bortezomib] (partner 0.002 µM)
Summary of the method: as §1

Veliparib + Lapatinib = compound: C[C@]1(c2nc3c(C(N)=O)cccc3[nH]2)CCCN1 [Veliparib] + CS(=O)(=O)CCNCc1ccc(-c2ccc3ncnc(Nc4ccc(OCc5cccc(F)c5)c(Cl)c4)c3c2)o1 [Lapatinib] (partner 2 µM)
Summary of the method: as §1

Cell Line | relative viability ([1]; first compound 0.08 µM) | relative viability ([1]; first compound 0.253 µM) | relative viability ([1]; first compound 0.8 µM) | relative viability ([1]; first compound 2.53 µM) | relative viability ([1]; first compound 8 µM) | relative viability ([2]; first compound 0.08 µM) | relative viability ([2]; first compound 0.253 µM) | relative viability ([2]; first compound 0.8 µM) | relative viability ([2]; first compound 2.53 µM) | relative viability ([2]; first compound 8 µM) | relative viability (Veliparib + Bortezomib; first compound 0.02 µM) | relative viability (Veliparib + Bortezomib; first compound 0.06325 µM) | relative viability (Veliparib + Bortezomib; first compound 0.2 µM) | relative viability (Veliparib + Bortezomib; first compound 0.6325 µM) | relative viability (Veliparib + Bortezomib; first compound 2 µM) | relative viability (Veliparib + Lapatinib; first compound 0.02 µM) | relative viability (Veliparib + Lapatinib; first compound 0.06325 µM) | relative viability (Veliparib + Lapatinib; first compound 0.2 µM) | relative viability (Veliparib + Lapatinib; first compound 0.6325 µM) | relative viability (Veliparib + Lapatinib; first compound 2 µM)
NCI-H2087 | 0.253 | 0.293 | 0.246 | 0.294 | 0.234 | 0.396 | 0.448 | 0.442 | 0.404 | 0.374 | 0.563 | 0.819 | 0.81 | 0.709 | 0.838 | 0.548 | 1.02 | 0.913 | 0.854 | 1.32
NCI-H2126 | 0.736 | 0.801 | 0.856 | 0.856 | 0.754 | 0.516 | 0.52 | 0.544 | 0.584 | 0.517 | 1.03 | 1.07 | 1.18 | 1.14 | 1.06 | 0.797 | 0.687 | 0.726 | 0.775 | 0.729
NCI-H2228 | – | 0.229 | 0.291 | 0.228 | 0.185 | – | 0.381 | 0.3 | 0.305 | 0.24 | 0.924 | 0.844 | 1 | 0.843 | 0.999 | 0.968 | 0.889 | 1.11 | 0.96 | 1.06
NCI-H2347 | 0.463 | 0.415 | 0.613 | 0.611 | 0.503 | 0.382 | 0.357 | 0.415 | 0.525 | 0.368 | 1.13 | 0.687 | 1.09 | 1.21 | 0.959 | 0.962 | 0.917 | 0.897 | 1.01 | 0.944
NCI-H2405 | 0.523 | 0.807 | 0.716 | 0.689 | 0.656 | 0.327 | 0.431 | 0.39 | 0.416 | 0.365 | 0.96 | 0.858 | 0.978 | 0.988 | 0.93 | – | 0.941 | 1.09 | 1.14 | 1.26
NCI-H3122 | – | 0.327 | 0.397 | 0.352 | 0.382 | – | 0.324 | 0.393 | 0.382 | 0.337 | 1.01 | 0.99 | 0.968 | 0.998 | 0.938 | 0.931 | 1.05 | 0.995 | 0.994 | 1.07
PC-3 [JPC-3] | 0.861 | 0.912 | 0.921 | 0.88 | 0.908 | 0.5 | 0.464 | 0.475 | 0.495 | 0.497 | 0.821 | 0.789 | 0.85 | 0.815 | 0.785 | 0.422 | 0.397 | 0.454 | 0.476 | 0.477
PC-14 | 0.302 | 0.548 | 0.561 | 0.638 | 0.486 | – | 0.348 | 0.667 | 0.639 | 0.488 | 0.865 | 0.807 | 0.795 | 0.714 | 0.757 | 0.279 | 0.367 | 0.323 | 0.28 | 0.315
RERF-LC-KJ | 0.427 | 0.494 | 0.499 | 0.49 | 0.388 | 0.362 | 0.412 | 0.484 | 0.408 | 0.347 | 1.07 | 0.928 | 1.15 | 1.02 | 1.05 | 0.839 | 0.82 | 0.853 | 0.813 | 0.854
SK-LU-1 | 0.279 | 0.339 | 0.325 | 0.337 | 0.3 | 0.551 | 0.566 | 0.596 | 0.604 | 0.469 | 1.51 | 1.03 | 0.984 | 1.36 | 0.589 | 0.868 | 0.835 | 0.966 | 0.823 | 1.02
UMC-11 | – | 0.204 | 0.215 | 0.215 | 0.223 | – | 0.356 | 0.331 | 0.286 | 0.309 | 0.592 | 0.727 | 0.668 | 0.685 | 0.667 | 0.893 | 1 | 0.841 | 1.09 | 1.07
